US20230295131A1, “INHIBITORS OF RHO-ASSOCIATED COILED-COIL KINASE” (Angion Biomedica Corp., priority 2020, published 2023)
Like-named read-outs stand apart in the source and are kept apart here.

What was measured:
[1] = 12-16 weeks of dosing in healthy volunteers and patients; cited from earlier work
fibroblasts = fibroblasts treated with KD025; cited from earlier work
[2] = system: murine autoimmune disease; conditions: KD025 administration; cited from earlier work
HCC = HCC patients at advanced stage; cited from earlier work
ROCK1 = target: T1, ROCK1 (Homo sapiens, UniProt Q13464); test: ROCK1 kinase binding affinity, DiscoverX KINOMEscan KdELECT; conditions: 11-point 3-fold dilution
T1 construct: T7 phage fusion (kinase-tagged phage) or DNA tag for qPCR detection
Procedure, shortened: (§1)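 Competition binding of DNA- or phage-tagged kinase to immobilised ligand beads, with bound kinase quantified by qPCR of eluates.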

ROCK2 = target: T2, ROCK2 (Homo sapiens, UniProt O75116); test: ROCK2 kinase binding affinity, DiscoverX KINOMEscan KdELECT; conditions: for ROCK2 Selectivity: selectivity for ROCK2 over ROCK1 from Kd
T2 construct: T7 phage fusion (kinase-tagged phage) or DNA tag for qPCR detection
Procedure, shortened: as §1

Hepatic stellate cells = test: Gel contraction assay (TGFβ1-induced); type: cell-based; conditions: test compound at 100 μM, 1 hour pretreatment, TGFβ1 24 hours
Protocol: Hepatic stellate cells were plated onto collagen coated plates and pretreated with test compound (at 100 μM) for 1 hour. TGFβ1 is then added for 24 hours, and images are taken.

[3] = system: chronic hepatitis C infection; conditions: cited from earlier work
[4] = KINOMEscan KdELECT, 11-point 3-fold dilution, read-out: Kd (μM) ROCK2

T1 sequence (Q13464 whole entry, the tested form may be a part): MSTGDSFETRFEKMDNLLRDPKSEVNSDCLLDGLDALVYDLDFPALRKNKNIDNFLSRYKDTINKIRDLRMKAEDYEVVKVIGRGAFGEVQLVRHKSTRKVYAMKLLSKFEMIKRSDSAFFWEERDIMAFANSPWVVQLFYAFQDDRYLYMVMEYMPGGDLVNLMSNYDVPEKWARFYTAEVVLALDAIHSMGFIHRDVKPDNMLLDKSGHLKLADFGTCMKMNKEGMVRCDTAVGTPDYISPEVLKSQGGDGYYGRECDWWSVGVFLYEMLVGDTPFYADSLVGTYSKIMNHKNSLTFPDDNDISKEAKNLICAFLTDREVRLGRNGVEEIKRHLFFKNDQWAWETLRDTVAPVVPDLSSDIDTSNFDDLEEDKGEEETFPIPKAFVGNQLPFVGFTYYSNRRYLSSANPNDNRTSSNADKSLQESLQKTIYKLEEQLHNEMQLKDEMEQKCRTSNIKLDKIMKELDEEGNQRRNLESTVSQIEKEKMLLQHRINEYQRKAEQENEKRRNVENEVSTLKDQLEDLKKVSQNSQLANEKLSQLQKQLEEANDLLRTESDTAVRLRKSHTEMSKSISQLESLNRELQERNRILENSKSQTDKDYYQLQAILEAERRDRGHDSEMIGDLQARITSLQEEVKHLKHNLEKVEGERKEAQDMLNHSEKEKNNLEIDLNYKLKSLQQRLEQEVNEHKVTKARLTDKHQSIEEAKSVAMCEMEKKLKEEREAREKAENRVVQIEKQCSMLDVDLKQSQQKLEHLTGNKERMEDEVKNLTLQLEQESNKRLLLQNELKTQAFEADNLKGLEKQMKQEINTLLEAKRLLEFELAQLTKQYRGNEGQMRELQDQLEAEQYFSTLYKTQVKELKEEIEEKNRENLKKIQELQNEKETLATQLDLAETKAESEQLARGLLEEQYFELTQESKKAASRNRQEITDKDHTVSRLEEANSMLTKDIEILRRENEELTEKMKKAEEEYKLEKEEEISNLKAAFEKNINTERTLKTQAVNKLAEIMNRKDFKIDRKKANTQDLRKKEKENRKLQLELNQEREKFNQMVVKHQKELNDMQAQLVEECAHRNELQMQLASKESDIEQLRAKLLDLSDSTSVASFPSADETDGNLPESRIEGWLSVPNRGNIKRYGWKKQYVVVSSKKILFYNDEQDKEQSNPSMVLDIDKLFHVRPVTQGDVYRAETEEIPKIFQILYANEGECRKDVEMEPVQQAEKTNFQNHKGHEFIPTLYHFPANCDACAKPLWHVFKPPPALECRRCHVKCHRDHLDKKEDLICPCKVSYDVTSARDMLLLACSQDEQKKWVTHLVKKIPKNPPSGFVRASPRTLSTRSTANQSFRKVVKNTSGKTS
T2 sequence (O75116 whole entry, the tested form may be a part): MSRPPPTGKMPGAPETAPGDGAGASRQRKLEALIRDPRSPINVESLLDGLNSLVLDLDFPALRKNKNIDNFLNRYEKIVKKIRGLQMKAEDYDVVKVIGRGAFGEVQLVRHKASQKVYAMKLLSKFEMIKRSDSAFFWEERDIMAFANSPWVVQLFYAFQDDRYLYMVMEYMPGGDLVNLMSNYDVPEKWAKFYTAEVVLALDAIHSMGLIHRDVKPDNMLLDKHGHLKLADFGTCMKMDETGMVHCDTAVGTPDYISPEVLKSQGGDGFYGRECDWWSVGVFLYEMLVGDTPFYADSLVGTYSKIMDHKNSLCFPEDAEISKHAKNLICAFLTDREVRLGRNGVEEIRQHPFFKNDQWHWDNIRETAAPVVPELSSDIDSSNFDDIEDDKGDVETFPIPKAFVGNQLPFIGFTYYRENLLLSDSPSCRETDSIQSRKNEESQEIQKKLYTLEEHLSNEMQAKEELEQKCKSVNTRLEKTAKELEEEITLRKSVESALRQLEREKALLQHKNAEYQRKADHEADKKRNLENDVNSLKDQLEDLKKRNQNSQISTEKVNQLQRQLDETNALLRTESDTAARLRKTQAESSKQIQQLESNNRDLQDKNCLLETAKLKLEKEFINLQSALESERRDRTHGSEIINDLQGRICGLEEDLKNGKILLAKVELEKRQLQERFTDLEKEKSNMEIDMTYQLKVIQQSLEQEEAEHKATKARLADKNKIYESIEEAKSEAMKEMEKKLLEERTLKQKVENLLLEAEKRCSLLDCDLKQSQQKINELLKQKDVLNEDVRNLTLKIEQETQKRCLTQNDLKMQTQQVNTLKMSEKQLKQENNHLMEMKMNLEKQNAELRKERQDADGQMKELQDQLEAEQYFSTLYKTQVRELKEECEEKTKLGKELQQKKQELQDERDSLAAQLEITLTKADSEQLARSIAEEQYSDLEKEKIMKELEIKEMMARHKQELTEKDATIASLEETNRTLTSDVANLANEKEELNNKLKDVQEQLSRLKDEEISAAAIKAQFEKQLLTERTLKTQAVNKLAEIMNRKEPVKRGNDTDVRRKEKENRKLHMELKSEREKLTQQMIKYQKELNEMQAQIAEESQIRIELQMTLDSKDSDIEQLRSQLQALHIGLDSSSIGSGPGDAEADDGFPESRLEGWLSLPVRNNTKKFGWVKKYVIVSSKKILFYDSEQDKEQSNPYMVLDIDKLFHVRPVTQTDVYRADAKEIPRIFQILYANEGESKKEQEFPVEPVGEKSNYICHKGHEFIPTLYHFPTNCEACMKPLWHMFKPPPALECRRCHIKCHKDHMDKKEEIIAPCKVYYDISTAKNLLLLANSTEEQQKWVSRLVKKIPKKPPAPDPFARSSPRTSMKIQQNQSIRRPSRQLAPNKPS

Compound | Kd (ROCK1) [µM] | Kd (ROCK2; [4]) [µM] | ROCK2 Selectivity (ROCK2) | further results
CC(C)NC(=O)COc1cccc(-c2nc(Nc3ccc4[nH]ncc4c3)c3ccccc3n2)c1 [KD025] | – | – | – | hemodynamic or other side effects [1]: no hemodynamic or other side effects; expression of profibrotic mRNA including CTGF (fibroblasts): decreased; expression of pro-inflammatory, fibrosis-linked cytokines [2]: decreased; murine autoimmune disease [2]: mitigated
CNC(=O)c1cc(Oc2ccc(NC(=O)Nc3ccc(Cl)c(C(F)(F)F)c3)cc2)ccn1 [sorafenib] | – | – | – | extension of median survival (HCC): less than 3 months
O[C@H]1CC[C@@H](Nc2nccc(-c3nccc(C#Cc4ccc5[nH]nc(F)c5c4)n3)n2)CC1 [Ex. 93, (1s,4s)-4-((4-((3-Fluoro-1H-Indazol-5-yl)ethynyl)-[2,4′-bipyrimidin]-2′-yl)amino)cyclohexanol] | 1 to 9.9 | < 0.01 | **** (>500-fold selectivity for ROCK2) | TGFβ1-induced gel contraction in hepatic stellate cells (Hepatic stellate cells): significantly attenuated
interferon | – | – | – | response to antiviral therapy ([3]; in combination with ribavirin): ~50%; response to antiviral therapy ([3]; used alone): ~20%
C(#Cc1ccnc(-c2ccnc(NCc3nc4ccccc4[nH]3)n2)n1)c1ccc2[nH]ncc2c1 [Ex. 57, N-((1H-Benzo[d]imidazol-2-yl)methyl)-4-((1H-indazol-5-yl)ethynyl)-[2,4′-bipyrimidin]-2′-amine] | 10 to 100 | 0.01 to 0.099 | **** (>500-fold selectivity for ROCK2) | –
O[C@H]1CC[C@@H](Nc2nccc(-c3nccc(C#Cc4ccc5[nH]cnc5c4)n3)n2)CC1 [Ex. 95, (1s,4s)-4-((4-((1H-Benzo[d]imidazol-5-yl)ethynyl)-[2,4′-bipyrimidin]-2′-yl)amino)cyclohexanol] | 10 to 100 | – | *** (151 to 500-fold selectivity for ROCK2) | Kd (ROCK2): 0.01 to 0.099 µM
O[C@H]1CC[C@@H](Nc2nccc(-c3nccc(C#Cc4ccc5cncn5c4)n3)n2)CC1 [Ex. 96, (1s,4s)-4-((4-(Imidazo[1,5-a]pyridin-6-ylethynyl)-[2,4′-bipyrimidin]-2′-yl)amino)cyclohexanol] | 10 to 100 | 0.01 to 0.099 | ** (50 to 150-fold selectivity for ROCK2) | –
C(#Cc1ccnc(-c2ccnc(NCC3CCCC3)n2)n1)c1ccc2[nH]ncc2c1 [Ex. 44, 4-((1H-Indazol-5-yl)ethynyl)-N-(cyclopentylmethyl)-[2,4′-bipyrimidin]-2′-amine] | 10 to 100 | 0.01 to 0.099 | *** (151 to 500-fold selectivity for ROCK2) | –
COc1ccccc1CNc1nccc(-c2nccc(C#Cc3ccc4[nH]ncc4c3)n2)n1 [Ex. 18, 4-((1H-Indazol-5-yl)ethynyl)-N-(2-methoxybenzyl)-[2,4′-bipyrimidin]-2′-amine] | 1 to 9.9 | 0.01 to 0.099 | ** (50 to 150-fold selectivity for ROCK2) | –
C(#Cc1ccnc(-c2ccnc(NC[C@@H]3CCOC3)n2)n1)c1ccc2[nH]ncc2c1 [Ex. 58, (S)-4-((1H-Indazol-5-yl)ethynyl)-N-((tetrahydrofuran-3-yl)methyl)-[2,4′-bipyrimidin]-2′-amine] | 1 to 9.9 | < 0.01 | **** (>500-fold selectivity for ROCK2) | –
C(#Cc1ccnc(-c2ccnc(NCc3ncccn3)n2)n1)c1ccc2[nH]ncc2c1 [Ex. 7, 4-((1H-indazol-5-yl)ethynyl)-N-(pyrimidin-2-ylmethyl)-[2,4′-bipyrimidin]-2′-amine] | 0.1 to 0.99 | 0.01 to 0.099 | * (<50-fold selectivity for ROCK2) | –
CN(Cc1ccc(F)cn1)c1nccc(-c2nccc(C#Cc3ccc4[nH]ncc4c3)n2)n1 [Ex. 30, 4-((1H-Indazol-5-yl)ethynyl)-N-((5-fluoropyridin-2-yl)methyl)-N-methyl-[2,4′-bipyrimidin]-2′-amine] | 1 to 9.9 | 0.1 to 0.99 | * (<50-fold selectivity for ROCK2) | –
C(#Cc1ccnc(-c2ccnc(NCC3CCCO3)n2)n1)c1ccc2[nH]ncc2c1 (centres unmarked) [Ex. 17, 4-((1H-Indazol-5-yl)ethynyl)-N-((tetrahydrofuran-2-yl)methyl)-[2,4′-bipyrimidin]-2′-amine] | 0.1 to 0.99 | < 0.01 | *** (151 to 500-fold selectivity for ROCK2) | –
Fc1ccc(CNc2nccc(-c3nccc(C#Cc4ccc5[nH]ncc5c4)n3)n2)nc1 [Ex. 3, 4-((1H-Indazol-5-yl)ethynyl)-N-((5-fluoropyridin-2-yl)methyl)-[2,4′-bipyrimidin]-2′-amine] | 1 to 9.9 | < 0.01 | *** (151 to 500-fold selectivity for ROCK2) | –
C(#Cc1ccnc(-c2ccnc(NC[C@@H]3CCCO3)n2)n1)c1ccc2[nH]ncc2c1 [Ex. 35, (S)-4-((1H-Indazol-5-yl)ethynyl)-N-((tetrahydrofuran-2-yl)methyl)-[2,4′-bipyrimidin]-2′-amine] | 0.1 to 0.99 | < 0.01 | *** (151 to 500-fold selectivity for ROCK2) | –
Fc1cc(CNc2nccc(-c3nccc(C#Cc4ccc5[nH]ncc5c4)n3)n2)ccn1 [Ex. 33, 4-((1H-Indazol-5-yl)ethynyl)-N-((2-fluoropyridin-4-yl)methyl)-[2,4′-bipyrimidin]-2′-amine] | 1 to 9.9 | < 0.01 | *** (151 to 500-fold selectivity for ROCK2) | –
Fc1cc(F)c(F)c(CNc2nccc(-c3nccc(C#Cc4ccc5[nH]nc(F)c5c4)n3)n2)c1 [Ex. 60, 4-((3-Fluoro-1H-indazol-5-yl)ethynyl)-N-(2,3,5-trifluorobenzyl)-[2,4′-bipyrimidin]-2′-amine] | 10 to 100 | 1 to 9.9 | * (<50-fold selectivity for ROCK2) | –
C(#Cc1ccnc(-c2ccnc(NCc3ccccc3)n2)n1)c1ccc2[nH]ncc2c1 [Ex. 14, 4-((1H-Indazol-5-yl)ethynyl)-N-benzyl-[2,4′-bipyrimidin]-2′-amine] | 1 to 9.9 | 0.01 to 0.099 | * (<50-fold selectivity for ROCK2) | –
CC(Nc1nccc(-c2nccc(C#Cc3ccc4[nH]ncc4c3)n2)n1)c1ccc(F)cn1 (centres unmarked) [Ex. 28, 4-((1H-Indazol-5-yl)ethynyl)-N-(1-(5-fluoropyridin-2-yl)ethyl)-[2,4′-bipyrimidin]-2′-amine] | 1 to 9.9 | 0.01 to 0.099 | * (<50-fold selectivity for ROCK2) | –
O=C(CNc1nccc(-c2nccc(C#Cc3ccc4[nH]ncc4c3)n2)n1)N1CCCC1 [Ex. 52, 2-((4-((1H-Indazol-5-yl)ethynyl)-[2,4′-bipyrimidin]-2′-yl)amino)-1-(pyrrolidin-1-yl)ethanone] | 0.1 to 0.99 | < 0.01 | ** (50 to 150-fold selectivity for ROCK2) | –
O=C(O)[C@H]1CC[C@H](Nc2nccc(-c3nccc(C#Cc4ccc5[nH]ncc5c4)n3)n2)CC1 [Ex. 87, (1r,4r)-4-((4-((1H-Indazol-5-yl)ethynyl)-[2,4′-bipyrimidin]-2′-yl)amino)cyclohexanecarboxylic acid] | 1 to 9.9 | 0.1 to 0.99 | * (<50-fold selectivity for ROCK2) | –
